ChEMBL document CHEMBL4732263 (Bioorg Med Chem, 2021)
Converted amounts (≈) assume the structure as drawn.

Assays:
in vitro [1] = conditions: mouse, liver microsomes
physchem [2] = conditions: HCl, pH 2, pH 2
in vitro [3] = conditions: human, liver microsomes
[4] = human, microsomes, 1 h, 1 µM
physchem [5] = conditions: octanol/water, pH 7.4
in vitro [6] = conditions: human, liver microsomes; remark: listed apart in the source
[7] = mouse, microsomes, 1 h, 1 µM
physchem [8] = conditions: PBS, pH 6.5, pH 6.5
in vitro [9] = conditions: mouse, liver microsomes; remark: listed apart in the source
in vitro [10] = conditions: Balb/C, mouse, plasma; at 1 µg/mL
in vitro [11] = conditions: Balb/C, mouse, plasma; at 1 µg/mL; remark: listed apart in the source
[12] = Clearance in Sprague-Dawley rat blood at 2.6 mg/kg, iv up to 24 hrs by LC-MS analysis; assay type: ADME, organism-based; conditions: whole blood
[13] = target: Sodium channel protein type 5 subunit alpha (Homo sapiens, UniProt Q14524)
Sodium channel protein type 5 subunit alpha, sequence (Q14524 whole entry): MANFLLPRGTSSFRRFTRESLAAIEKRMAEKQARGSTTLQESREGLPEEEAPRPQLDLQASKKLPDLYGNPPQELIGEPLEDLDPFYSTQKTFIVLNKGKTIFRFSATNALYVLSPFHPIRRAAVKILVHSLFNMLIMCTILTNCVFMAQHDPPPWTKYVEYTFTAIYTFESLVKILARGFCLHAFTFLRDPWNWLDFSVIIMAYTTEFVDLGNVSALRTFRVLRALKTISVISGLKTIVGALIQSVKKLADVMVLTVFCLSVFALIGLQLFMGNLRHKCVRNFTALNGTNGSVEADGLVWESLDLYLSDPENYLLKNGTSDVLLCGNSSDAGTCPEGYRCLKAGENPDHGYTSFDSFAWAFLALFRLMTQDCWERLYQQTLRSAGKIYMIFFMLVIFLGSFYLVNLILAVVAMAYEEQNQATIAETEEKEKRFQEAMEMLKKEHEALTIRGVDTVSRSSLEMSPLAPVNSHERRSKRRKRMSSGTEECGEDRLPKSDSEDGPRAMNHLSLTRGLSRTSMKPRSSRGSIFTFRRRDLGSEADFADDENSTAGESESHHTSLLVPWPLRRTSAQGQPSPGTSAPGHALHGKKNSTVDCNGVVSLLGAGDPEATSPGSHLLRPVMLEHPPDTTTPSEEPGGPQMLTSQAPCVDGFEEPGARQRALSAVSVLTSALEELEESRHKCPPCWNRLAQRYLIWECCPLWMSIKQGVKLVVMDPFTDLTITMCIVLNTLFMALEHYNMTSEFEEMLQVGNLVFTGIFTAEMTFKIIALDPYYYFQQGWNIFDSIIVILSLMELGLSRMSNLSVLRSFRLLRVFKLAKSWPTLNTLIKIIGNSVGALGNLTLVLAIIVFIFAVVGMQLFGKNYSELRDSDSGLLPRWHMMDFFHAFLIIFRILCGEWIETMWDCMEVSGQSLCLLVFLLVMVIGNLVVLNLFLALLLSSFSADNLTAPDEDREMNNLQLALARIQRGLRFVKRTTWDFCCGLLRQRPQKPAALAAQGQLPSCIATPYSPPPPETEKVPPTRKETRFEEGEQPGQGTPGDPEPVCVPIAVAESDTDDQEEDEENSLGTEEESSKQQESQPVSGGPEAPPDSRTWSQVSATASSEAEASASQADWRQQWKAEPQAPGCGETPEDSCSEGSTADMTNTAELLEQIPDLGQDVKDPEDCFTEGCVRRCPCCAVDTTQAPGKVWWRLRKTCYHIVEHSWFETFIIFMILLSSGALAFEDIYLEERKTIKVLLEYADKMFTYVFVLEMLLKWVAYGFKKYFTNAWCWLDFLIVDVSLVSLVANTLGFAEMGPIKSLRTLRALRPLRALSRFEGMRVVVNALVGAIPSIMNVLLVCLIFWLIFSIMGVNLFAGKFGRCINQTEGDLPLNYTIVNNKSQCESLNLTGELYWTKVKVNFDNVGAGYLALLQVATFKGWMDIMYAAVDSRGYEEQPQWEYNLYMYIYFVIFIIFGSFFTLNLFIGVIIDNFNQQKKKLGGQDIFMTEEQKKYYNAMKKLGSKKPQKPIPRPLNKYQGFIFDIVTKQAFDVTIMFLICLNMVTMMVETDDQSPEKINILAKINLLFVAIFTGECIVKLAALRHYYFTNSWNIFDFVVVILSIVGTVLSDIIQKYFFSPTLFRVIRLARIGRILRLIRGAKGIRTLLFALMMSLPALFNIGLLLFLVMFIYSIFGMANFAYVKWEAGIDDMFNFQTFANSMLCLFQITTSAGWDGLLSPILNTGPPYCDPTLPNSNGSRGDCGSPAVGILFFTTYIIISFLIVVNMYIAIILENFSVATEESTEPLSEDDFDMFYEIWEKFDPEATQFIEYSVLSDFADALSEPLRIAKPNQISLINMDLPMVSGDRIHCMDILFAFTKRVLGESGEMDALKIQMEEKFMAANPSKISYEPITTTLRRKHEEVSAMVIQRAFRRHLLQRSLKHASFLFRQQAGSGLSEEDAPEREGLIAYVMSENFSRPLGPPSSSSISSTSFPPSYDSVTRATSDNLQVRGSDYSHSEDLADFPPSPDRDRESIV

[14] = Volume of distribution at steady state in Sprague-Dawley rat plasma at 2.6 mg/kg, iv up to 24 hrs by LC-MS analysis; assay type: ADME, organism-based; conditions: read-out: Vdss
[15] = AUC(0 to infinity) in Sprague-Dawley rat plasma at 2.6 mg/kg, iv up to 24 hrs by LC-MS analysis; assay type: ADME, organism-based; design: route intravenous, dose 2.6 mg/kg, time <=24
[16] = mouse, blood, 2 h; at 1 µg/mL
[17] = Half life in Sprague-Dawley rat at 2.6 mg/kg, iv up to 24 hrs by LC-MS analysis; assay type: ADME, organism-based; conditions: in vivo
[18] = Drug excretion in Sprague-Dawley rat urine at 2.6 mg/kg, iv up to 24 hrs by LC-MS analysis; assay type: ADME, organism-based; conditions: read-out: Drug excretion
[19] = AUC(0 to infinity) in Balb/C mouse plasma at 3.5 mg/kg, iv up to 24 hrs by LC-MS analysis; assay type: ADME, organism-based; design: route intravenous, dose 3.5 mg/kg, time <=24
[20] = Plasma clearance in Sprague-Dawley rat at 2.6 mg/kg, iv up to 24 hrs by LC-MS analysis; assay type: ADME, organism-based
in vivo = conditions: Balb/C, mouse, po
[21] = Clearance in Sprague-Dawley rat renal blood at 2.6 mg/kg, iv up to 24 hrs by LC-MS analysis; assay type: ADME, organism-based; conditions: whole blood
[22] = Plasma clearance in Balb/C mouse at 3.5 mg/kg, iv up to 24 hrs by LC-MS analysis; assay type: ADME, organism-based
[23] = Clearance in Balb/C mouse blood at 3.5 mg/kg, iv up to 24 hrs by LC-MS analysis; assay type: ADME, organism-based; conditions: whole blood
[24] = Volume of distribution at steady state in Balb/C mouse blood at 3.5 mg/kg, iv up to 24 hrs by LC-MS analysis; assay type: ADME, organism-based; conditions: whole blood, read-out: Vdss
[25] = Volume of distribution at steady state in Sprague-Dawley rat blood at 2.6 mg/kg, iv up to 24 hrs by LC-MS analysis; assay type: ADME, organism-based; conditions: whole blood, read-out: Vdss
cells = conditions: Homo sapiens, HEK293, 10 min
[26] = Volume of distribution at steady state in Balb/C mouse plasma at 3.5 mg/kg, iv up to 24 hrs by LC-MS analysis; assay type: ADME, organism-based; conditions: read-out: Vdss
[27] = Apparent half life in Balb/C mouse at 3.5 mg/kg, iv up to 24 hrs by LC-MS analysis; assay type: ADME, organism-based; conditions: in vivo, read-out: t1/2(app) (converted)
[28] = Volume of distribution at steady state in Sprague-Dawley rat plasma at 2.9 mg/kg, iv up to 24 hrs by LC-MS analysis; assay type: ADME, organism-based; conditions: read-out: Vdss
[29] = Drug excretion in Sprague-Dawley rat urine at 2.9 mg/kg, iv up to 24 hrs by LC-MS analysis; assay type: ADME, organism-based; conditions: read-out: Drug excretion
[30] = AUC(0 to infinity) in Sprague-Dawley rat plasma at 2.9 mg/kg, iv up to 24 hrs by LC-MS analysis; assay type: ADME, organism-based; design: route intravenous, dose 2.9 mg/kg, time <=24
in vitro [31] = conditions: human, Caco-2
in vitro [32] = conditions: human, Caco-2; remark: listed apart in the source
[33] = Half life in Sprague-Dawley rat at 2.9 mg/kg, iv up to 24 hrs by LC-MS analysis; assay type: ADME, organism-based; conditions: in vivo
[34] = Clearance in Sprague-Dawley rat renal blood at 2.9 mg/kg, iv up to 24 hrs by LC-MS analysis; assay type: ADME, organism-based; conditions: whole blood
[35] = Clearance in Sprague-Dawley rat blood at 2.9 mg/kg, iv up to 24 hrs by LC-MS analysis; assay type: ADME, organism-based; conditions: whole blood
in vitro [36] = conditions: human, Caco-2; remark: listed apart in the source
[37] = Volume of distribution at steady state in Balb/C mouse blood at 1.9 mg/kg, iv up to 24 hrs by LC-MS analysis; assay type: ADME, organism-based; conditions: whole blood, read-out: Vdss
[38] = Clearance in Balb/C mouse blood at 1.9 mg/kg, iv up to 24 hrs by LC-MS analysis; assay type: ADME, organism-based; conditions: whole blood
in vitro [39] = conditions: human, Caco-2; remark: listed apart in the source
[40] = target: Voltage-gated inwardly rectifying potassium channel KCNH2 (Homo sapiens, UniProt Q12809)
Voltage-gated inwardly rectifying potassium channel KCNH2, sequence (Q12809 whole entry): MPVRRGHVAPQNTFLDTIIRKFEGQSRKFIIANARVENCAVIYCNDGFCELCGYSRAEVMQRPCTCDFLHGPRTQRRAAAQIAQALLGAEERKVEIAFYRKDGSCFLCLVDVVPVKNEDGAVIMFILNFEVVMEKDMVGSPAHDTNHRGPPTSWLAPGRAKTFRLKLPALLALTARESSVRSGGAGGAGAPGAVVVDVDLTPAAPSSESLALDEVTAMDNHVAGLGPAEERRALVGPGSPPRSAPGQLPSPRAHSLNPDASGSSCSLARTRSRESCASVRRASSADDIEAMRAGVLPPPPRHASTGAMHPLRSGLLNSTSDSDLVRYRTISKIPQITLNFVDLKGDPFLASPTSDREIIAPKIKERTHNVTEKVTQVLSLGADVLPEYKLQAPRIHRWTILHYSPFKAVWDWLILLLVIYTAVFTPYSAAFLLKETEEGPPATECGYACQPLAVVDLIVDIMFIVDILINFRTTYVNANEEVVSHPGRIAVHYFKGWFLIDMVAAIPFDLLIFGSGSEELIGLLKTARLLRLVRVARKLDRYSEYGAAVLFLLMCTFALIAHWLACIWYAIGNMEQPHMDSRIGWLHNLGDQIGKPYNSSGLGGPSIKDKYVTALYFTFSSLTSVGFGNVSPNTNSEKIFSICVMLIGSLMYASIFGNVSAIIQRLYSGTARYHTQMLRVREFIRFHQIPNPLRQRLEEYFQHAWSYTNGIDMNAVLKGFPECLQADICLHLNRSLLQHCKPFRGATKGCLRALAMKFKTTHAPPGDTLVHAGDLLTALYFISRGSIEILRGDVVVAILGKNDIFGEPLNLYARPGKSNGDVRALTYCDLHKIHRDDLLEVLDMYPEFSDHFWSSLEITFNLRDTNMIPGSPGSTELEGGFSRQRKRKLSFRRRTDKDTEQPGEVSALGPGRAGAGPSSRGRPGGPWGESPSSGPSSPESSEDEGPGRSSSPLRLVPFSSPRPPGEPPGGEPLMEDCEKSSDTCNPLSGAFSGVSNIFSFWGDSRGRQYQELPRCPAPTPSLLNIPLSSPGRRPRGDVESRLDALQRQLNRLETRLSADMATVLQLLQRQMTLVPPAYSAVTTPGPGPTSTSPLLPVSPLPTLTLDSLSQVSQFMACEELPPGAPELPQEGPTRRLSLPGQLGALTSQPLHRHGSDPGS

[41] = Volume of distribution at steady state in Sprague-Dawley rat blood at 2.9 mg/kg, iv up to 24 hrs by LC-MS analysis; assay type: ADME, organism-based; conditions: whole blood, read-out: Vdss
[42] = AUC(0 to infinity) in Balb/C mouse plasma at 1.9 mg/kg, iv up to 24 hrs by LC-MS analysis; assay type: ADME, organism-based; design: route intravenous, dose 1.9 mg/kg, time <=24
[43] = Apparent half life in Balb/C mouse at 1.9 mg/kg, iv up to 24 hrs by LC-MS analysis; assay type: ADME, organism-based; conditions: in vivo, read-out: t1/2(app) (converted)
[44] = Plasma clearance in Balb/C mouse at 1.9 mg/kg, iv up to 24 hrs by LC-MS analysis; assay type: ADME, organism-based
[45] = Plasma clearance in Sprague-Dawley rat at 2.9 mg/kg, iv up to 24 hrs by LC-MS analysis; assay type: ADME, organism-based
[46] = Volume of distribution at steady state in Balb/C mouse plasma at 1.9 mg/kg, iv up to 24 hrs by LC-MS analysis; assay type: ADME, organism-based; conditions: read-out: Vdss
in vitro [47] = conditions: human, Caco-2; remark: listed apart in the source

SMILES | microsomal CLint at 1 h, 1 µM (in vitro [1]) [µL/min/mg] | solubility kinetic (physchem [2]) [µg/mL] | half-life at 1 h, 1 µM (in vitro [3]) [min] | CL free [4] [µL/min/mg] | logD (physchem [5]) | microsomal CLint at 1 h, 1 µM (in vitro [6]) [µL/min/mg] | CL free [7] [µL/min/mg] | solubility kinetic (physchem [8]) [µg/mL] | half-life at 1 h, 1 µM (in vitro [9]) [min] | fraction unbound at […], 1 ug/ml (in vitro [10]) | metabolised at 4 h, 1 ug/ml (in vitro [11]) [%] | Stabilty [16] | IC50 (cells) [µM] | Papp A→B at 2 h, 20 µM (in vitro [31]) [×10⁻⁶ cm/s] | Papp B→A at 2 h, 20 µM (in vitro [39]) [×10⁻⁶ cm/s] | IC50 [13] [µM] | further results
N=C(N)NC(=O)c1nc(-c2ccco2)c(N)nc1N | 224 | > 100 | 35 | 55 | 1.4 | 50 | 245 | 25 (≈ 95.7 µM) | 7.7 | – | – | – | – | – | – | – | –
N=C(N)NC(=O)c1nc(-c2ccc(C(F)(F)F)cc2)c(N)nc1N | 11 | > 100 | > 255 | 11 | 2.8 | < 7 | 17 | 50 (≈ 147 µM) | 153 | – | – | – | – | – | – | – | –
COc1ncc(-c2nc(C(=O)NC(=N)N)c(N)nc2N)cn1 | < 7 | > 100 | > 255 | < 7 | – | < 7 | < 7 | 12.5 (≈ 41.2 µM) | > 255 | 0.4 | < 6 | Unstable | > 30 | 0.57 | 0.26 | > 30 | Vd [28]: 3.4 L/kg; dose excreted at 24 h [29]: 36.4%; AUC(0-inf) [30]: 3.2 µM·h; recovery at 2 h, 20 µM (in vitro [32]): 97%; half-life [33]: 402 min; CL renal at 24 h [34]: 29.2 mL/min/kg; clearance [35]: 78.9 mL/min/kg; recovery at 2 h, 20 µM (in vitro [36]): 104%; Vd [37]: 0.7 L/kg; clearance [38]: 41 mL/min/kg; IC50 [40]: > 30 µM; Vd [41]: 5.2 L/kg; bioavailability at 24 h (in vivo; at 1.9 to 3.5 mg/kg): 0.81%; AUC(0-inf) [42]: 2.7 µM·h; half-life [43]: 37.2 min; clearance [44]: 38 mL/min/kg; clearance [45]: 51.3 mL/min/kg; Vd [46]: 0.7 L/kg
CC(C)NCC(O)COc1cccc2ccccc12 (centres undefined) [PROPRANOLOL] | – | – | – | – | – | – | – | – | – | – | – | – | – | 49 | 51 | – | efflux ratio at 2 h, 20 µM (in vitro [47]): 1.1

The next lines start with results.

microsomal CLint at 1 h, 1 µM (in vitro [1]) [µL/min/mg] | solubility kinetic (physchem [2]) [µg/mL] | half-life at 1 h, 1 µM (in vitro [3]) [min] | CL free [4] [µL/min/mg] | logD (physchem [5]) | microsomal CLint at 1 h, 1 µM (in vitro [6]) [µL/min/mg] | CL free [7] [µL/min/mg] | solubility kinetic (physchem [8]) [µg/mL] | half-life at 1 h, 1 µM (in vitro [9]) [min] | fraction unbound at […], 1 ug/ml (in vitro [10]) | metabolised at 4 h, 1 ug/ml (in vitro [11]) [%] | Stabilty [16] | IC50 (cells) [µM] | Papp A→B at 2 h, 20 µM (in vitro [31]) [×10⁻⁶ cm/s] | Papp B→A at 2 h, 20 µM (in vitro [39]) [×10⁻⁶ cm/s] | SMILES | IC50 [13] [µM] | further results
106 | – | 33 | 84 | – | 53 | 167 | – | 16 | 0.06 | < 6 | Unstable | 22 | – | – | N=C(N)NC(=O)c1nc(-c2cc3ccccc3o2)c(N)nc1N | 22 | clearance [12]: 44.7 mL/min/kg; Vd [14]: 17.5 L/kg; AUC(0-inf) [15]: 1.6 µM·h; half-life [17]: 294 min; dose excreted at 24 h [18]: 12.5%; AUC(0-inf) [19]: 1.6 µM·h; clearance [20]: 87.7 mL/min/kg; bioavailability at 24 h (in vivo): < 5%; CL renal at 24 h [21]: 5.6 mL/min/kg; clearance [22]: 114 mL/min/kg; clearance [23]: 60 mL/min/kg; Vd [24]: 2.2 L/kg; Vd [25]: 8.9 L/kg; Vd [26]: 4.1 L/kg; half-life [27]: 43.8 min
252 | 50 (≈ 153 µM) | 68 | 41 | 2.9 | 25 | 417 | 12.5 (≈ 38.2 µM) | 7 | – | – | – | – | – | – | N=C(N)NC(=O)c1nc(-c2cc3ccccc3s2)c(N)nc1N | – | –
